From US20250282779A1, “SUBSTITUTED 5,6,7,8-TETRAHYDROPYRIDO[2,3-D]PYRIMIDINE-2,4-DIONES FOR TREATING CARDIAC DISEASES” (MYOKARDIA, INC., priority 2018, published 2025)

Assays:
[1] = molecular target: T1, bovine cardiac myosin (Bos taurus (Bovine), UniProt Q9BE39); assay: Myosin inhibition assay (bcMF pCa 6 IC50); type: biochemical; conditions: bovine cardiac myofibrils, calcium giving 50% activation
Protocol: Myosin inhibition assay (bcMF pCa 6IC50 (μM))
Small molecule agents were assessed for their ability to inhibit the enzymatic activity of bovine cardiac myosin using a biochemical assay that couples the release of ADP (adenosine diphosphate) from cardiac myosin to an enzymatic coupling system consisting of pyruvate kinase and lactate dehydrogenase (PK/LDH) and monitoring the absorbance decrease of NADH (at 340 nm) as a function of time. PK converts ADP to ATP (adenosine triphosphate) by converting PEP (phosphoenolpyruvate) to pyruvate. Pyruvate is then converted to lactate by LDH by converting NADH (nicotinamide adenine dinucleotide) to NAD (oxidized nicotinamide adenine dinucleotide). The source of cardiac myosin was from bovine heart in the form of skinned myofibrils. Prior to testing small molecule agents, the bovine myofibrils were assessed for their calcium responsiveness and the calcium concentration that achieves a 50% activation of the myofibril system was chosen as the final condition for assessing the inhibitory activity of the small molecule agents. All enzymatic activity was measured in a buffered solution containing 12 mM PIPES (piperazine-N,N′-bis(2-ethanesulfonic acid), 2 mM magnesium chloride at pH 6.8 (PM12 buffer). Final assay conditions were 1 mg/mL of bovine cardiac myofibrils, 0.4 mM PK/LDH, 50 uM ATP, 0.1 mg/mL BSA (bovine serum albumin), 10 ppm antifoam, 2 mM BME, 0.5 mM NADH, and 1.5 mM PEP at the desired free calcium concentration required to achieve 50% activation of the myofibrils.
A dilution series of compound was created in DMSO such that the final desired concentration of compound would be achieved in a volume of 30 μL with a fixed DMSO concentration of 3.3% (v/v). Typically 1 μL of the dilution series were added to 384 well plate to achieve a 10 point dose response. Following the addition of 14 μL of a solution containing bovine cardiac myofibrils, PK/LDH and a solution of calcium (that achieved 50% activation), the enzymatic reaction was started with the addition of 15 μL of a solution containing ATP, PEP and NADH. The reaction progress was followed in a PerkinElmer Envision plate reader at ambient temperature using clear bottom plates. The plate reader was configured to read absorbance at 340 nm in kinetics mode for 15 minutes. Data were recorded as the slope of the absorbance response to time. The slopes of the absorbance response as a function of time were normalized to slopes on the plate containing DMSO. This normalized rate was then plotted as a function of small molecule concentration and the data was fitted to a four-parameter fit using EXCEL XLfit. The IC50 is the concentration at which fifty percent of the total response is inhibited.

[2] = Reactive metabolite identification (glutathione adducts); type: in vitro ADME, human
Protocol: Reactive Metabolite Identification
In vitro determination of reactive metabolite formation for small molecules by detection of glutathione adducts formed in vitro in incubations with human liver microsomes fortified with NADPH and glutathione.
Methods: The metabolism of small molecules (30 μM) for glutathione adduct formation was assessed in incubations (200 μL volume, […], 60 min incubation time) with liver microsomes from human (1 mg/mL protein) conducted in potassium phosphate buffer (0.1 M, pH 7.4) for 1 h at 37° C. in a 96-well plate (2 mL well volume) and were performed in the absence of NADPH (used as a negative control) and in the presence of NADPH (1 mM) and glutathione (GSH, 10 mM). Incubations with liver microsomes were performed in a shaking water bath incubator with slow horizontal shaking (30 rpm). To obtain 30 μM incubation concentration of a compound, a 3 mM substrate stock solution in DMSO was used. Final incubation mixtures contained 148 μL of potassium phosphate buffer, 10 μL of liver microsome solution (20 mg protein/mL), 2 μL of the 3 mM substrate solution and where incubations were initiated by the addition of 40 μL of NADPH solution (5 mM dissolved in potassium phosphate buffer). Non-NADPH containing incubations were supplemented with 40 μL of potassium phosphate buffer. Post-incubation, reactions were terminated by adding an equal volume of acetonitrile containing 20 nM carbamazepine internal standard and 3% formic acid. Quenched samples then were centrifuged (4,600 rpm, 4° C., 10-min) after which the supernatants were transferred to a 96-well LC-MS sample analysis plate and diluted with one volume equivalent of HPLC-grade water, and then heat sealed with aluminum foil prior to analysis by liquid chromatography/mass spectrometry (LC-MS/MS).
Analyte identification: The LC-MS/MS detection (with in-line UV detection at 280 nm) of test compounds and potential GSH-adducts was focused on extracting selected ion chromatographic profiles using the protonated molecular ion MH^+ m/z for parent to 4 decimal places, and corresponding protonated molecular ions of predicted GSH-adduct metabolites (m/z MH^+ parent+305.0681 amu) using Xcalibur software (version 2.1.0, Thermo Fisher Scientific, Waltham, MA). Relative GSH-adduct abundance in vitro in liver microsome extracts was assessed using the LC/UV absorbance at 280 nm peak area ratio obtained by using Xcalibur software (version 2.1.0) between the detected GSH-adducts from NADPH- and GSH-fortified incubation extracts and the corresponding LC/UV peak area of the parent compound from minus NADPH containing incubation extracts. The extent of GSH-adduct formation was determined by LC-MS/MS analysis with in-line LC-UV detection at 280 nm by dividing the glutathione-adduct LC/UV peak area by the LC/UV peak area of the corresponding parent HCM-1 NG analog determined from analysis of control (-NAPDH, -GSH) incubations extracts.
Materials: Pooled male human (HLM, 50 donors) liver microsomes were obtained from Bioreclamation IVT (Baltimore, MD). Glutathione (GSH) and NADPH were purchased from Sigma Chemical Co. (St. Louis, MO). All solvents used for liquid chromatography-tandem mass spectrometry (LC-MS/MS) analyses were of chromatographic grade.
LC-MS Conditions: Extracts from incubations with liver microsomes and hepatocytes were characterized by LC-MS and LC-MS/MS on a Thermo Electron LTQ Orbitrap XL mass spectrometer coupled with a Dionex UltiMate 3000 UHPLC containing in-line diode array detection and an OAS-3300TXRS Autosampler (40 μL injection volume). Electrospray ionization (ESI) was employed in the positive ion mode with the needle potential held at 5.01 kV, a sheath flow rate of 35.02, aux flow rate of 9.99, a current of 2.6 uA, a capillary temperature of 325° C., and a capillary voltage of 15.99. Vacuum conditions used were an ion gauge pressure used was 2.33×10^−5 Torr and a convection gauge pressure of 0.90 Torr. […]

[3] = physchem; conditions: pH 7.4, aqueous buffer, kinetic from dmso stock
Protocol: After shaking at room temperature for 1.5 h, the mixture was filtered under vacuum through a 96-well filter plate, which was pre-washed with 100 μL of 70% ethanol per well. Subsequently, 70 μL of the filtrate was added into a well in a 96-well reading plate, which was pre-loaded with 70 μL of DMSO per well. The concentration of the sample in a well was determined on the basis of the intergration on LC with UV detection as compared to the standard curve of each compound established in DMSO.

[4] = molecular target: T1, bovine cardiac myosin; assay: Myosin inhibition assay (bcMF serum pCa 6 IC50), 10% human serum; type: biochemical; conditions: in the presence of 10% human serum
Text: Myosin Inhibition Assay (bcMF Serum pCa 6 IC50 (μM))
Inhibition of the enzymatic activity of bovine cardiac myosin associated with the release of ADP (adenosine diphosphate) at the calcium concentrate that achieves a 50% activation of the bovine cardiac myofibril system in the presence of 10% human serum. The procedure was the same as that bovin cardiac myosin inhibition assay (bcMF pCa 6 IC50 (μM)) but with the addition of 10% human serum.

[5] = system: rabbit skeletal myosin; assay: Myosin inhibition assay (rbskMF pCa 6 IC50); type: biochemical; conditions: cardiac vs rabbit skeletal myofibrils
Text: Myosin inhibition assay (rbskMF pCa 6 IC50 (μM))
Inhibition of the enzymatic activity of rabbit skeletal myosin associated with the release of ADP (adenosine diphosphate) at the calcium concentrate that achieves a 50% activation of the rabbit skeletal myofibril system. The procedure was the same as that of bovin cardiac myosin inhibition assay (bcMF pCa 6 IC50 (μM)) by replacing bovine cardiac myofibril with rabbit skeletal myofibril.

T1 sequence (Q9BE39 whole entry): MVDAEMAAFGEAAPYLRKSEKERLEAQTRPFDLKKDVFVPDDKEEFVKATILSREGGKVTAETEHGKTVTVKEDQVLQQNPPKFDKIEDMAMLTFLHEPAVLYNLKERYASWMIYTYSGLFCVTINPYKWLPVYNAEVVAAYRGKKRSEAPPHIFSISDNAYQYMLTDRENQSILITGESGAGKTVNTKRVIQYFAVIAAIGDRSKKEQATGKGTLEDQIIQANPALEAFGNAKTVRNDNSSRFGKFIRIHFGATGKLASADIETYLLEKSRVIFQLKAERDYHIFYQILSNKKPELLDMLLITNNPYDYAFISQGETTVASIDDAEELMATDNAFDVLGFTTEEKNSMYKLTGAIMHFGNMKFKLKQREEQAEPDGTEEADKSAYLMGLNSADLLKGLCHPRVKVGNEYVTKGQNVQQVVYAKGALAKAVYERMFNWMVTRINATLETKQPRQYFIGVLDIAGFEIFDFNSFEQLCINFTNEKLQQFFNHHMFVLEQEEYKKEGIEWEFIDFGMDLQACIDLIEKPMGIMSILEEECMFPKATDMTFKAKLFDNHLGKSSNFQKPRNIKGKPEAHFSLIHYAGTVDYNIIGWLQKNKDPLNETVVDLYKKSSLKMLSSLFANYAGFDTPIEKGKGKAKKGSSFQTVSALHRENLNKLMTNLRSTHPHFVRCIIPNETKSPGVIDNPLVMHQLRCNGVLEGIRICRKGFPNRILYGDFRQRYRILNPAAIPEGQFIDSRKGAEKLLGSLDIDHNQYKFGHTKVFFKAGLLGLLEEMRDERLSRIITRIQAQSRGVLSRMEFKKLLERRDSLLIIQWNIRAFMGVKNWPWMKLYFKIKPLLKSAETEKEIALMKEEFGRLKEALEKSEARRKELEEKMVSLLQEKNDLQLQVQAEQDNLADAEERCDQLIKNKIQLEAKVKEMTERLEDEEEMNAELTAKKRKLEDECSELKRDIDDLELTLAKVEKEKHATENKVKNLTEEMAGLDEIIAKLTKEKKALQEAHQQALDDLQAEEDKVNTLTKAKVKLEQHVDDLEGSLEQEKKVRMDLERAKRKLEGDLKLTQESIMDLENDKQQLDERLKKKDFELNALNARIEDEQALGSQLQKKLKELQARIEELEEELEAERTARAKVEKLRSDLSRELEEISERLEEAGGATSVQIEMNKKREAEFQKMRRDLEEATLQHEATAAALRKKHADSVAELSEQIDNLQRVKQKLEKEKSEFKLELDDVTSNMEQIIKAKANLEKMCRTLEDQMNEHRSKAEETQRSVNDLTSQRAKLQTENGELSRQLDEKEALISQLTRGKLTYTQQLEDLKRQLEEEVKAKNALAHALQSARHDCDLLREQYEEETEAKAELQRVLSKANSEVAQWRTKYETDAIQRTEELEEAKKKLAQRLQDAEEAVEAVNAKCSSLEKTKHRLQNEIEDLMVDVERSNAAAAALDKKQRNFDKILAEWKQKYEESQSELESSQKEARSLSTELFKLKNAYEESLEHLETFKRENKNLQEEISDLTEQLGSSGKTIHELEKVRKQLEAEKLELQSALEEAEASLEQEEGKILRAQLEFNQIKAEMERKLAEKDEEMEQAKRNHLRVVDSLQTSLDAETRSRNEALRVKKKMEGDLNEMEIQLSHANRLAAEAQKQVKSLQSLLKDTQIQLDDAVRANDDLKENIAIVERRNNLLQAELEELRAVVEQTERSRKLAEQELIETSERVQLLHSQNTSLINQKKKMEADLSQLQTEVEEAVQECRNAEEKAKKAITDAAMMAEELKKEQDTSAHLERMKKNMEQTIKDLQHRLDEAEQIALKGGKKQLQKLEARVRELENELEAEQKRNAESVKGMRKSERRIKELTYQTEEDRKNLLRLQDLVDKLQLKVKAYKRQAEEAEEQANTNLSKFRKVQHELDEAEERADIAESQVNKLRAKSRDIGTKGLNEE
T1 sequence (P85100 whole entry partner): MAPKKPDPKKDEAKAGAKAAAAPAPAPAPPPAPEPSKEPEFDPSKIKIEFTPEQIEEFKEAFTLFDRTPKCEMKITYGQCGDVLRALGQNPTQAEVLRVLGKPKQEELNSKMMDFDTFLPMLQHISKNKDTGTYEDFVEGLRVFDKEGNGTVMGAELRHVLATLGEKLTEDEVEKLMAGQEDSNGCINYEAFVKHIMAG
T1 sequence (Q3SZE5 whole entry partner): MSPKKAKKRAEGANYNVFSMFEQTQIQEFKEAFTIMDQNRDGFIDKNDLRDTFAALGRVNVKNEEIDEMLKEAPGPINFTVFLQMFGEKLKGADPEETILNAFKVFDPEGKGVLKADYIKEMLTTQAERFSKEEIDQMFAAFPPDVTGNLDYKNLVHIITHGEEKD

| SMILES | IC50 ([1]; read-out: bcMF pCa_6 IC50 MEAN) | Glutathione Adduct Detection in Human Liver Microsome Incubations (single measurement) [2] | Glutathione Adduct Detection in Human Liver Microsome Incubations, Average (triple measurements) [2] | solubility kinetic at 1.5 h [3] | IC50 ([1]; read-out: bcMF pCa 6 IC50) | IC50 [4] | % GSH-adduct (+NADPH, +GSH) relative to parent (−NADPH, −GSH) ([2]; human liver microsomes, 30 μM, 60 min) | Cardiac selectivity ratio vs rbskMF pCa 6 IC50 [5] |
| --- | --- | --- | --- | --- | --- | --- | --- | --- |
| Cc1ccc(F)c([C@H]2Nc3[nH]c(=O)n(C4CCOCC4)c(=O)c3C[C@@H]2F)c1 [Compound 6, (6S,7R)-6-fluoro-7-(2-fluoro-5-methylphenyl)-3-(tetrahydro-2H-pyran-4-yl)-5,6,7,8-tetrahydropyrido[2,3-d]pyrimidine-2,4(1H,3H)-dione] | 26400 nM | Not Detected | Not Detected |  |  |  |  |  |
| COC(=O)[C@H]1[C@H]2C[C@@H]3c4[nH]c5cc(OC)ccc5c4CCN3C[C@H]2C[C@@H](OC(=O)c2cc(OC)c(OC)c(OC)c2)[C@@H]1OC [Reserpine] |  |  |  | < 15 µM |  |  |  |  |
| O=c1[nH]c2c(c(=O)n1C1CCOCC1)C[C@@H](F)[C@@H](c1cccc(F)c1)N2 [Compound 12] | 23200 nM | Not Detected | Not Detected |  |  |  |  |  |
| O=c1[nH]c2c(c(=O)n1C1CCOCC1)C[C@H](F)[C@H](c1ccccc1F)N2 [Compound 9] | 5590 nM | Not Detected | Not Detected |  |  |  |  |  |
| O=c1[nH]c2c(c(=O)n1C1CCOCC1)C[C@H](F)[C@H](c1cccc(F)c1)N2 [Compound 1, (6S,7S)-6-fluoro-7-(3-fluorophenyl)-3-(tetrahydro-2H-pyran-4-yl)-5,6,7,8-tetrahydropyrido[2,3-d]pyrimidine-2, 4(1H, 3H)-dione] | 3030 nM | Not Detected | Not Detected |  | 3030 nM | 3700 nM | Not Detected | 7.38 |
| O=c1[nH]c2c(c(=O)n1C1CCOCC1)C[C@@H](F)[C@H](c1ccccc1F)N2 [Compound 8] | 1460 nM | Not Detected | Not Detected |  |  |  |  |  |
| O=c1[nH]c2c(c(=O)n1C1CCOCC1)C[C@@H](F)[C@H](c1cccc(F)c1)N2 [Compound 2, (6R,7S)-6-fluoro-7-(3-fluorophenyl)-3-(tetrahydro-2H-pyran-4-yl)-5,6,7,8-tetrahydropyrido[2,3-d]pyrimidine-2,4(1H, 3H)-dione] | 2130 nM | Not Detected | Not Detected |  | 2130 nM | 3110 nM |  | 10.71 |
| Cc1ccc(F)c([C@H]2Nc3[nH]c(=O)n(C4CCOCC4)c(=O)c3C[C@H]2F)c1 [Compound 5, (6R,7R)-6-fluoro-7-(2-fluoro-5-methylphenyl)-3-(tetrahydro-2H-pyran-4-yl)-5,6,7,8-tetrahydropyrido[2,3-d]pyrimidine-2,4(1H, 3H)-dione] | 20800 nM | Not Detected | Not Detected |  |  |  |  |  |

More lines, in order of falling IC50 ([1]; read-out: bcMF pCa_6 IC50 MEAN), values ahead:

| IC50 ([1]; read-out: bcMF pCa_6 IC50 MEAN) | Glutathione Adduct Detection in Human Liver Microsome Incubations (single measurement) [2] | Glutathione Adduct Detection in Human Liver Microsome Incubations, Average (triple measurements) [2] | solubility kinetic at 1.5 h [3] | IC50 ([1]; read-out: bcMF pCa 6 IC50) | IC50 [4] | % GSH-adduct (+NADPH, +GSH) relative to parent (−NADPH, −GSH) ([2]; human liver microsomes, 30 μM, 60 min) | SMILES | Cardiac selectivity ratio vs rbskMF pCa 6 IC50 [5] |
| --- | --- | --- | --- | --- | --- | --- | --- | --- |
| 1020 nM | Not Detected | Not Detected |  |  |  |  | COc1ccc(F)c([C@@H]2Nc3[nH]c(=O)n(C4CCOCC4)c(=O)c3C[C@@H]2F)c1 [Compound 10] |  |
| 780 nM |  |  |  |  |  |  | O=c1[nH]c2c(c(=O)n1C1CCOCC1)C[C@H](F)[C@H](c1cc(CO)ccc1F)N2 |  |
| 540 nM |  |  |  |  |  |  | C#Cc1ccc(F)c([C@@H]2Nc3[nH]c(=O)n(C4CCOCC4)c(=O)c3C[C@@H]2F)c1 [Compound 7] |  |
| 490 nM | Not Detected | Not Detected |  |  |  |  | COc1ccc(F)c([C@@H]2Nc3[nH]c(=O)n(C4CCOCC4)c(=O)c3C[C@H]2F)c1 [Compound 11] |  |
| 370 nM | Not Detected | Not Detected |  |  |  |  | Cc1ccc(F)c([C@@H]2Nc3[nH]c(=O)n(C4CCOCC4)c(=O)c3C[C@H]2F)c1 [Compound 4, (6R,7S)-6-fluoro-7-(2-fluoro-5-methylphenyl)-3-(tetrahydro-2H-pyran-4-yl)-5,6,7,8-tetrahydropyrido[2,3-d]pyrimidine-2,4(1H, 3H)-dione] |  |
